This is an account of results in patent publication US20250387494A1, “Prodrugs Based On Tumor Targeting Near Infrared Dye-Drug Conjugates (DDC)” (Lahjavida, Inc., priority 2022, published 2025).

In data set [1] the test system is SW620 tumor. Put plainly: Tumor growth inhibition, intratumor injection. The class given is in vivo, mice. The settings on record: for Tumor increase rate: intratumor 15 mg/kg; for Tumor size / tumor growth rate: intratumor injection 15 mg/kg. Here is the method: (§1) Thirty-nine (39) female athymic nude mice were injected subcutaneously with 10×10^6 SW620 cells in 0.1 ml PBS with 20% Matrigel on the right flank. When the tumor size reaches within the range of approximately ˜70-200 mm^3, mice were sorted as day 0. Thirty (30) mice were randomized into five (5) groups of six (6) mice per group and dosed singly (I.V.) with the test articles or the vehicle control (This day is Day 1: treatment starts). Administrations of Vehicle (saline), NIR dye (“Dye3” in Table 2), Irinotecan, NIR dye-linker-SN38 (XV), and NIR dye-linker Doxo (XVI) are described in Table 6. Before treatment starts/randomization of mice, the 6 mice whose tumors were getting within the range first were used to determine the maximum tolerated dose (MTD) or dose level of two articles NIR day-linker-SN38 (XV), and NIR dye-linker Doxo (XVI), 3 mice for each.
(§2) Tumor size will be assessed daily, and once noticed palpably, the tumor measurements/body weight started daily up to the randomization day, and before randomization, to get 6 mice as mentioned above for the MTD study, and NIR imaging. After randomization, tumor size and body weight were assessed three times a week (M, W, F) for the duration of the study. Monitoring: a), Record BW on M, W, and F; b). Record signs of distress daily; c). Record tumor size M, W, F; d). In vivo NIR imaging (Group 1, 2, 4, and 5): Ex: 780 nm, Em: 810 nm, on day 1:0.5 hr, 2 hr, 4 hr, 8 hr post day 1 dosing, then 24 hr (day 2), then in vivo imaging, every M, W, and F, until the study ended on day 35.
(§3) The mice were injected with the said compounds either via intravenous tail injection or with intratumor injection for. Two studies were carried out: one was the compounds uptake study by the tumor as judged by the NIR imaging of both the whole mice body (FIGS. 10A, 10B, 11A, and 11B) and of the mice organs (FIGS. 12A, 12B, 13A, 13B, 14A and 14B). The injection method for these study was via intravenous tail injection. The second was the efficacy evaluation of these compounds as judged by their tumor growth inhibition, the injection method for these study was via both intravenous tail injection and intratumor injection.

Data set [2] has as its system SW620 tumor. Put plainly: In vivo NIR fluorescent imaging of whole body and organs. Conditions: for tumor accumulation, whole body NIR imaging: intravenous tail injection, 11 days after second dosing at 15 mg/kg; for tumor accumulation, whole body NIR imaging / NIR fluorescent signal in tumor (organ imaging) / NIR signal (organ imaging): 10 s exposure. Here is the method: as §1, §2
Mice were euthanized on day 35 or mice will be sacrificed when tumor size was more than 2000 mm^3. On termination day, NIR imaging of various organs of 3 mice (if the remaining mice >3) from each group 1, 2, 4 and 5. For each mouse: the tumor, heart, liver, spleen, lungs, kidneys, and brain are imaged at the same time.
as §3

Data set [3] deals with SW620 tumor. Description: Tumor growth inhibition, intravenous tail injection. In kind it is in vivo, mice. Also noted: key to Tumor size: tumor size in mm^3. The settings on record: for Tumor size: i.v. 10 mg/kg, second dose 15 mg/kg on Day 11; for Tumor increase rate: i.v.; for tumor growth rate: intravenous. The procedure: as §1, §2, §3
In data set [4] the test system is 2D lung cancer cell line (A549). Put plainly: Compound uptake study by NIR mean intensity. The class given is cell-based. Conditions: 5 μM, compared with control dyes Dye 1 and Dye 2, all time points. The procedure:
The tumor cells were seeded in a chamber and incubated for 24 h at 37° C. under 5% CO2. After removal of medium, cells were treated with the test materials at 5 μM concentration. When reaching the time points, cells were washed with PBS three times, then fluorescent images were taken under a fluorescent microscope.
(§4) The tumor-targeting ability and therapeutic efficacy of a four additional DDC prodrugs together with the controls of two corresponding NIR dyes, as well as two chemotherapeutic drugs were explored (Table 6) in 2D lung cancer cell line (A549) studies.
(§5) The cell lines were dosed with 5 μM of said compounds. Two studies were carried out: one was the compounds uptake study by the tumor cell line as judged by both the NIR intensity mean (FIG. 6) and by nuclei counts (FIG. 7) per well over time.

Data set [5] shares this test system. Put plainly: Compound uptake/toxicity study by nuclei counts. The class given is cell-based. Conditions: 5 μM, over all the time points. The procedure:
Cell viability assay was measured using Cell Titer-Glo luminescent cell ability kit via two parameters: Hoechst nuclei counts via imaging, and 2D Celltiter-glo measuring ATP content from live cells. IC50 values were calculated with a 4-variable curve analysis.
as §4, §5

The mark [6] stands for this setting: Day 4 vs Day 1 (cell stands under Day 1).
The mark [7] stands for this setting: Day 6 vs Day 4 (cell stands under Day 4).
The mark [8] stands for this setting: Day 8 vs Day 6 (cell stands under Day 6).
The mark [9] stands for this setting: Day 11 vs Day 8 (cell stands under Day 8).
Where [10] appears, read: Day 13 vs Day 11 (cell stands under Day 11).
Where [11] appears, read: Day 15 vs Day 13 (cell stands under Day 13).
Where [12] appears, read: Day 18 vs Day 15 (cell stands under Day 15).
Where [13] appears, read: Day 20 vs Day 18 (cell stands under Day 18).

Take `CCCCN1/C(=C/C=C2\CCCC(/C=C/C3=[N+](CCCCS(=O)(=O)[O-])c4ccccc4C3(C)C)=C2SCCC(=O)NCCC(=O)N2Cc3ccccc3-c3nnn(CCOCCOCCOCCOCCOCCOCCOCCOCCNC(=O)COCC(=O)N[C@H](C(=O)N[C@@H](CCCNC(N)=O)C(=O)Nc4ccc(COC(=O)Oc5ccc6nc7c(c(CC)c6c5)Cn5c-7cc6c(c5=O)COC(=O)[C@]6(O)CC)cc4)C(C)C)c3-c3ccccc32)C(C)(C)c2ccccc21` [Compound XV, Dye1-PEG8-Val-Cit-PABA-SN-38]: the Tumor increase rate in the data set on SW620 tumor [1] (setting [6]) was determined as 44%; in the data set with SW620 tumor [1] (setting [7]), 55%; in the data set on SW620 tumor [1] (setting [8]), 118%; in the data set with SW620 tumor [1] (setting [9]), 25%; with SW620 tumor [1] (setting [10]), 12.7%; with SW620 tumor [1] (setting [11]), 7%. For the same compound, the Tumor increase rate in the data set on SW620 tumor [1] (setting [12]) is on record as 3.8%; in the data set with SW620 tumor [1] (setting [13]) it was 8.3%; in the data set on SW620 tumor [3] (setting [6]), 44%; in the data set with SW620 tumor [3] (setting [7]), 55%; in the data set on SW620 tumor [3] (setting [8]), 118%; in the data set with SW620 tumor [3] (setting [9]) it was 25%. For the same compound, the Tumor increase rate with SW620 tumor [3] (setting [10]) is 12.7%; in the data set with SW620 tumor [3] (setting [11]), 7%; with SW620 tumor [3] (setting [12]) it was 3.8%; with SW620 tumor [3] (setting [13]), 8.3%. The Tumor size is 163.7 mm^3 with SW620 tumor [1] (Day 1); 235.4 mm^3 with SW620 tumor [1] (Day 4); 364.9 mm^3 in the data set on SW620 tumor [1] (Day 6); 794.5 mm^3 in the data set on SW620 tumor [1] (Day 8); 988.8 mm^3 in the data set with SW620 tumor [1] (Day 11); 11114.9 mm^3 with SW620 tumor [1] (Day 13). Further, the Tumor size with SW620 tumor [1] (Day 15) is 1193.3 mm^3; in the data set with SW620 tumor [1] (Day 18), 1239.1 mm^3; with SW620 tumor [1] (Day 20), 1342.1 mm^3; with SW620 tumor [3] (Day 1), 163.7; in the data set with SW620 tumor [3] (Day 4) it was 235.4; in the data set on SW620 tumor [3] (Day 6) it was 364.9. Moreover, the Tumor size with SW620 tumor [3] (Day 8) stood at 794.5; in the data set with SW620 tumor [3] (Day 11) it was 988.8; in the data set with SW620 tumor [3] (Day 13), 11114.9; with SW620 tumor [3] (Day 15) it was 1193.3; with SW620 tumor [3] (Day 18), 1239.1; with SW620 tumor [3] (Day 20), 1342.1. The tumor growth rate in the data set on SW620 tumor [1] (as low as) stood at 1%; in the data set with SW620 tumor [1] (initial), 63%; with SW620 tumor [3] (after the second dose (15 mg/kg, Day 11), low), 4%; in the data set with SW620 tumor [3] (before the second dose), 63%. Also, in the data set with SW620 tumor [2], the “tumor accumulation, whole body NIR imaging” value was “accumulate selectively in the tumor sites”. In addition, the “organ NIR fluorescent signal” value in the data set with SW620 tumor [2] (second dose 15 mg/kg, 24 hr after intravenous tail injection, auto exposure) is “the tumor showed the strongest NIR fluorescent signal among all the organs”. For the same compound, the “uptake by NIR Mean Intensity” value in data set [4] is on record as “taken up well”.

As to `CCCCN1/C(=C/C=C2\CCCC(/C=C/C3=[N+](CCCCS(=O)(=O)[O-])c4ccccc4C3(C)C)=C2SCCC(=O)NCCC(=O)N2Cc3ccccc3-c3nnn(CCOCCOCCOCCOCCOCCOCCOCCOCCNC(=O)COCC(=O)N[C@H](C(=O)N[C@@H](CCCNC(N)=O)C(=O)Nc4ccc(COC(=O)N[C@@H]5CC(O[C@@H]6C[C@@](O)(C(=O)CO)Cc7c(O)c8c(c(O)c76)C(=O)c6c(OC)cccc6C8=O)O[C@H](C)[C@H]5O)cc4)C(C)C)c3-c3ccccc32)C(C)(C)c2ccccc21` (stereo partly drawn) [Compound XVI, Dye1-PEG8-Val-Cit-PABA-Doxorubicin], the Tumor increase rate was 63% with SW620 tumor [1] (Day 3 vs Day 1 (cell stands under Day 1)), 1.1% in the data set with SW620 tumor [1] (Day 5 vs Day 3 (cell stands under Day 3)), 2.4% in the data set with SW620 tumor [1] (Day 8 vs Day 5 (cell stands under Day 5)) and 5.5% in the data set with SW620 tumor [1] (Day 10 vs Day 8 (cell stands under Day 8)). Besides, the Tumor size in the data set on SW620 tumor [1] (Day 1 (Table 10 schedule)) is on record as 855.4 mm^3; in the data set with SW620 tumor [1] (Day 3), 1393.5 mm^3; in the data set with SW620 tumor [1] (Day 5) it was 1409 mm^3; in the data set with SW620 tumor [1] (Day 8 (Table 10 schedule)), 1443 mm^3; with SW620 tumor [1] (Day 10), 1523.7 mm^3. The tumor growth rate with SW620 tumor [1] (as low as) is 0.4%; in the data set on SW620 tumor [1] (initial), 24%. Further, the “NIR fluorescent signal in tumor (organ imaging)” value is “strong NIR fluorescent signals” in the data set with SW620 tumor [2] (first dose 10 mg/kg, day 17 after intravenous tail injection) and “more intense” in the data set with SW620 tumor [2] (second dose 15 mg/kg, day 7 after intravenous tail injection, versus first dose day 17). For the same compound, the “tumor accumulation, whole body NIR imaging” value with SW620 tumor [2] is reported as “accumulate selectively in the tumor sites”. The “uptake by NIR Mean Intensity” value in data set [4] was “taken up well”.

For the compound `CCCCN1/C(=C/C=C2\CCCC(/C=C/C3=[N+](CCCCS(=O)(=O)[O-])c4ccccc4C3(C)C)=C2SCCC(=O)O)C(C)(C)c2ccccc21` [Dye 1], the “NIR signal (organ imaging)” value is given as “no NIR signals” with SW620 tumor [2] (first dose 4.37 mg/kg, day 17 after intravenous tail injection) and “strong NIR signals” in the data set with SW620 tumor [2] (second dose 4.37 mg/kg, day 7 after intravenous tail injection). Besides, in data set [5], the “toxicity by Nuclei Counts” value was “not toxic”.

`COC(=O)CCSC1=C(/C=C/C2=[N+](CCCCS(=O)(=O)[O-])c3ccccc3C2(C)C)CCC/C1=C\C=C1\N(CCCCCC(=O)O)c2ccccc2C1(C)C` [Dye 2]: the “toxicity by Nuclei Counts” value in data set [5] is recorded as “not toxic”.
